Reference: patent US6472404B1 (priority 2000, dated 2002)

Legend:
[1] = molecular target: HIV-1 protease (Human immunodeficiency virus type 1 group M subtype B, UniProt P04585); test: HIV protease inhibition assay (quenched fluorogenic substrate, fluorescence energy transfer)
Procedure: HIV protease inhibitory activity was assessed using an adaptation of the method of Matayoshi. et al. [Matayoshi E. D. et al (1990).
Crude HIV-1 protease was prepared from E. coli pPTΔN. Cultures were grown at 30° in M9 medium supplemented with 0.2% casamino acids, 100 μg/ml ampicillin and 25 μg/ml thiamine until OD600=0.5-0.6, and the temperature was raised to 42° to induce expression of the protease. After 1.5 hours, the cells were harvested and the pellets stored at −70° until required.
The protease was prepared by lysis of the cells in a French pressure cell followed by precipitation of the enzyme with ammonium sulfate at 30% saturation.
The assay buffer comprised 0.1M sodium acetate pH 4.7, 8 mM EDTA, 0.2 M NaCl.
Tubes were incubated for 2 hours at 37° and the reaction was terminated by the addition of 500 μl of a 2:1 mixture of DMSO:50 mM Tricine pH 8.5. Fluorescence was measured in a fluorescence spectrophotometer, excitation λ=340 nm, emission λ=492 nm.

[2] = test system: HIV-HXB2; test: Antiviral assay: protection of HIV-infected MT4 cells from cell death (MTT); assay type: cell-based; conditions: Human immunodeficiency virus 1, 120 h; MT4 cells infected with HIV-HXB2; 5 days; MTT viability; rounded to nearest whole number
Procedure: Methods 20: 309-321]. The method is based on the ability of compounds to protect HIV-infected T lymphoblastoid cells (MT4 cells) from cell-death mediated by the infection. The endpoint of the assay was calculated as the concentration of compound at which the cell viability of the culture was preserved by 50% (‘50% inhibitory concentration’, IC50). The cell viability of a culture was determined by the uptake of soluble, yellow 3-[4,5-dimethylthiazol-2-yl]-2,5-diphenyltetrazolium bromide (MTT) and its reduction to a purple insoluble formazan salt. After solubilization, spectrophotometric methods were employed to measure the amount of formazan product.
MT4 cells were prepared to be in logarithmic-phase growth and a total of 2×10^6 cells infected with either the wild type or site directed mutant clones of HIV-HXB2 at a multiplicity of approximately 0.0001 infectious units of virus per cell in a total volume of between 200-500 μl. The cells were incubated with virus for one hour at 37° C. then washed in 0.01 M phosphate buffered saline, pH 7.2, and resuspensed in culture medium for incubation in culture with serial dilutions of test compound. The culture medium used was RPMI 1640 without phenol red, supplemented with penicillin, streptomycin, L-glutamine and 10% fetal calf serum (GM10).
Test compounds were prepared as 2 mM solutions in dimethyl sulphoxide (DMSO). Four replicate, serial 2-fold dilutions in GM10 were then prepared and 50 microliter amounts placed in 96-well plates over a final concentration range of […]. Fifty microliters GM10 and 3.75×10^4 infected cells were then added to each well. Control cultures containing no cells (blank), uninfected cells (100% viability; 4 replicates) and infected cells without compound (total virus-mediated cell death; 4 replicates) were also prepared. The cultures were then incubated at 37° C. in a humidified atmosphere of 5% CO2 in air for 5 days.
A fresh solution of 5 mg/mL MTT was prepared in 0.01 M phosphate buffered saline, pH 7.2 and 20 μL added to each culture. The cultures were further incubated as before for 2 hours. They were then mixed by pipetting up and down, and 170 microliters of Triton X-100 in acidified isopropanol (10% v/v Triton X-100 in 1:250 mixture of concentrated HCl in isopropanol) were added and the cultures were mixed again by pipetting up and down. When the formazan deposit was fully solubilized by further mixing, the absorbance (OD) of the cultures was measured at 540 nm and 690 nm wavelength (690 nm readings were used as blanks for artefacts between wells). The percent protection for each treated culture was then calculated from the equation:
OD drug-treated cultures)−(OD untreated virus control cultures) % Protection=100%
(OD uninfected cultures)−(OD untreated virus control cultures)
The IC50 was then obtained from graph plots of percentage protection versus log10 drug concentration.

Q: With COC(=O)N[C@H](C(=O)N[C@@H](Cc1ccccc1)[C@H](O)CN1C[C@H]2CCCC[C@H]2C[C@H]1C(=O)NC(C)(C)C)C(C)(C)S(C)(=O)=O [Example 4, N-tert-Butyl-1,2,3,4,4a(S),5,6,7,8,8a(S)-decahydro-2-[2(R)-hydroxy-3(S)-[[3-(methanesulfonyl)-N-(methoxycarbonyl)-L-valyl]amino]-4-phenylbutyl]-3(S)-isoquinolinecarboxamide] as the compound, how does the IC50 [1] read?
A: The IC50 was 2.8 nM.

Q: What about the IC50 [2] of the same compound?
A: Its IC50 is 14 nM.

Q: What about the melting point of the same compound?
A: The melting point was 190 to 194 °C.
